Values quoted from earlier work in US20070037740A1, “Combination therapy with glatiramer acetate and alphacalcidol for the treatment of multiple sclerosis” (priority 2003, published 2007).

Experiments:
[1] = tested on: murine experimental autoimmune encephalomyelitis (EAE)
[2] = daily subcutaneous injections, 20 mg/injection

Compound | progression of murine EAE ([1]; administered after the induction of EAE) | development of murine EAE ([1]; mouse, in vivo) | appearance of "black holes" (multiple sclerosis; [2]) | appearance of new lesions by magnetic resonance imaging (MRI) (multiple sclerosis; [2]) | progression of disability (multiple sclerosis; [2]) | relapse rates (multiple sclerosis; [2]) | effective in treating multiple sclerosis (MS) (multiple sclerosis; in vivo)
C=C1/C(=C\C=C2/CCC[C@]3(C)[C@@H]([C@H](C)CCCC(C)(C)O)CC[C@@H]23)C[C@@H](O)C[C@@H]1O [1α,25-dihydroxycholecalciferol] | prevents the progression | prevents the development |  |  |  |  | 
L-glutamic acid polymer with L-alanine, L-lysine and L-tyrosine, acetate (salt) [glatiramer acetate] |  |  | reduce | reduce | reduce | reduce | effective
